Values quoted from earlier work as cited in patent US20030027805A1, “Use of 1,4-androstadienedione as a method of increasing levels of the anabolic/androgenic steroid boldenone in humans” (priority 2000, published 2003).
Where “and” joins values, the source holds several entries; their conditions need not be identical. Identical values can stand only once.

Conditions: for excretion in 17-hydroxy form: urinary, after oral dosing, comparison reported in literature

Row | SMILES | excretion of 17beta-hydroxysteroid metabolites compared with 1-androstenedione (comparison by the same authors with later 1-androstenedione study) | total recovery of 17-OH steroids (human, two subjects, urine, within 24 hours after oral administration of 100 mg, boldenone conjugates plus other 17-beta hydroxysteroids) | urinary recovery of boldenone conjugates (human, two subjects, within 24 hours after oral administration of 100 mg) | excretion in 17-hydroxy form
1 | C[C@]12C=CC(=O)C=C1CC[C@@H]1[C@@H]2CC[C@]2(C)C(=O)CC[C@@H]12 [androstadienedione, 1,4-androstadiene-3,17-dione] | far more | 18.4 % of the given dose and 21.2 % of the given dose | 7.1 % of the initial dosage and 11.1 % of the initial dosage | 
2 | C[C@]12CCC(=O)C=C1CC[C@@H]1[C@@H]2CC[C@]2(C)C(=O)CC[C@@H]12 [androstenedione, reference compound] |  |  |  | only in very small amounts
3 | C[C@]12CC[C@H]3[C@@H](CCC4=CC(=O)CC[C@@]43C)[C@@H]1CC[C@@H]2O [testosterone, reference compound] |  |  |  | only in very small amounts
